Details: laboratory conditions; fully loaded with surfactant
From the text: Dimethylamine is a flammable gas and generally provided as an aqueous solution at concentrations of about 40%. As such, it is difficult to obtain highly concentrated salts of glyphosate using only DMA solution as starting material.
In contrast to IPA, DMA has a […] flash and boiling point and supplied as 40% solution.

CNC.O=C(O)CNCP(=O)(O)O [DMA glyphosate, dimethylamine salt of glyphosate]
maximum stable fully loaded concentration of glyphosate: 560 gae/L
